The values that follow come from patent publication US20170016037A1, “Method for Increasing the Solubility of Methionine by Mineral Addition and Acid Treatment” (CJ CHEILJEDANG CORPORATION, priority 2009, published 2017).

Like-named read-outs stand apart in the source and are kept apart here.

For data set [1] the following is noted: cited from earlier work; for solubility in the aqueous solution: generally.
The conditions of data set [2]: cited from earlier work.
The conditions of data set [3]: pH 2; cited from earlier work.

As to `CSCCC(N)C(=O)O` (racemic) [DL-methionine], the “result of the same experiment using DL-methionine” value was “identical results” (as Example 1 (manganese sulfide, 0.1 M sulfuric acid; 50% solution), DL-methionine 99% Sigma); “identical results” (as Example 2 (zinc sulfide, 0.1 M sulfuric acid; 50% solution)); “identical results” (as Example 3 (3.75% minerals, 0.1 M sulfuric acid; 50% solution)); “identical results” (as Example 4 (1.88% minerals, 0.1 M sulfuric acid; 50% solution)). Further, in data set [1], the “solubility in the aqueous solution” value was “about 5 % (w/v)”. The “solubility of DL-methionine with use of mineral” value in data set [2] (U.S. Pat. No. 5,430,164, mineral) is “up to 12 % (w/v)”. The “solubility of DL-methionine with acid treatment” value in data set [3] was 18 % (w/v).
Regarding `CSCC[C@H](N)C(=O)O` (racemic) [methionine], the “methionine solubility maximized by combination of mineral addition and acid addition” value (summary statement, mineral amount less than 15% of the method used before) is on record as 50%. In addition, the “solubility of methionine in water” value in data set [1] (room temperature, generally known) is 50 to 55 mg/mL. Besides, in data set [2] (U.S. Pat. No. 5,430,164, total 3.5 to 3.9 M minerals (3.35 M zinc sulfate, 0.167 to 0.569 M ferric chloride), 1 L), the “maximum methionine solution concentration” value was at most 50%.
Turning to `CSCC[C@H](N)C(=O)O` [L-methionine], for the setting “L-methionine crystal powder purified to 99% or more from fermentation/enzymatic conversion solution, same manner as Examples 1 to 4”, the methionine solution concentration was at least 50%. For the setting “L-methionine-containing solution produced by fermentation and enzymatic conversion reaction”, the “solubility of L-methionine” value is on record as “up to 35%”. The “solubility in the aqueous solution” value in data set [1] is on record as “about 5 % (w/v)”.
